Results on 16 compounds are retold here after patent US6333340A, “Small molecule sulfonamides for vision and memory disorders” (Gpi Nil Holdings, Inc., priority 1998, dated 2001).

pKi: −log10 of the molar value. Like-named read-outs stand apart in the source and are kept apart here.

The subject of data set [1] is retinal ganglion cell axons. Description: Protection of retinal ganglion cell axons from degeneration following optic nerve transection, RT 97 axon density (Table V). Format: in vivo. The source says:
Efficacy of representative compounds from different immunophilin ligand series in protecting retinal ganglion cell axons from degeneration following optic nerve transection is set forth in Table V.

A short description of data set [2]: Clearance (comments of Table V). Format: in vitro ADME.
The target in a further data set is FKBP12 (Homo sapiens, UniProt P62942). Description: Inhibition of peptidyl-prolyl isomerase (rotamase) activity of FKBP, chymotrypsin-coupled assay. It is filed as biochemical. The source says:
The inhibition of the prolyl peptidyl cis-trans isomerase activity of FKBP may be measured as an indicator of this affinity.
Inhibition of the peptidyl-prolyl isomerase (rotamase) activity of the compounds used in the inventive methods and pharmaceutical compositions can be evaluated by known methods described in the literature (Harding et al., Nature, 1989, 341:758-760; Holt et al. J. Am. Chem. Soc., 115:9923-9938). These values are obtained as apparent Ki 's and are presented for representative compounds in TABLE B.
The cis-trans isomerization of an alanine-proline bond in a model substrate, N-succinyl-Ala-Ala-Pro-Phe-p-nitroanilide, is monitored spectrophotometrically in a chymotrypsin-coupled assay, which releases para-nitroanilide from the trans form of the substrate. The inhibition of this reaction caused by the addition of different concentrations of inhibitor is determined, and the data is analyzed as a change in first-order rate constant as a function of inhibitor concentration to yield the apparent Ki values.
In a plastic cuvette are added […] of ice cold assay buffer (25 mM HEPES, pH 7.8, 100 mM NaCl), 10 mL of FKBP (2.5 mM in 10 mM Tris-Cl pH 7.5, 100 mM NaCl, 1 mM dithiothreitol), 25 mL of chymotrypsin (50 mg/ml in 1 mM HCl) and […] of test compound at various concentrations in dimethyl sulfoxide. The reaction is initiated by the addition of 5 mL of substrate (succinyl-Ala-Phe-Pro-Phe-para-nitroanilide, 5 mg/mL in 2.35 mM LiCl in trifluoroethanol).
The absorbance at 390 nm versus time is monitored for 90 seconds using a spectrophotometer and the rate constants are determined from the absorbance versus time data files.

Where [3] appears, read: apparent Ki, Table B, read-out: Ki.

The pKi is −log10 of the Ki, conventionally taken in molar units.

FKBP12, sequence (P62942 whole entry): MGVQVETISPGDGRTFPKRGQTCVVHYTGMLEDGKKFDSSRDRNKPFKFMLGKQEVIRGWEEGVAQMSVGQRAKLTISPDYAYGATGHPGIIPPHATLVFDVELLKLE

For `O=C(SCCCc1ccccc1)[C@@H]1CCCN1C(=O)NC12CC3CC(CC(C3)C1)C2` [B], in data set [1], the “RT 97 RCC axon density 11 days after ON transection (36 ON axon rescued)” value (shortened to “RT 97 RCC axon density 11 days”) worked out at 100%.
In the case of `O=C(SCCCc1ccccc1)[C@@H]1CCCN1S(=O)(=O)Cc1ccccc1` [C], the Clearance in data set [2] stood at 31.1 µL/min. Besides, the “RT 97 RCC axon density 11 days” value in data set [1] is 60.4%.
As for `Cc1ccc(S(=O)(=O)N2CCCCC2C(=O)OC(CCCc2ccccc2)CCCc2ccccc2)cc1` (stereo not shown) [Compound 3, 1,7-diphenyl-4-heptyl-N-(para-toluene-sulfonyl)pipecolate], at FKBP12 (setting [3]), the negative-log Ki (pKi) was 6.97.
Same read-out and setting: as for `Cc1ccc(S(=O)(=O)N2CCCCC2C(=O)OCCCCc2ccccc2)cc1` (stereo not shown) [Compound 5, 4-phenyl-1-butyl-N-(para-toluene-sulfonyl)pipecolate], the figure is 6.30; as for `O=C(OCCCCc1ccccc1)C1CCCCN1S(=O)(=O)c1ccccc1` (stereo not shown) [Compound 6, 4-phenyl-1-butyl-N-(benzene-sulfonyl)pipecolate], 6.33.
For `O=C(OCCCCc1ccccc1)[C@@H]1CCCCN1S(=O)(=O)Cc1ccccc1` [D], the “RT 97 RCC axon density 11 days” value in data set [1] is reported as 58.4%.
Compound `CCC(C)(C)C(=O)CN1CCCCC1C(=O)OC(CCc1ccccc1)CCc1ccccc1` (stereo not shown) [E] yielded a Clearance in data set [2] of 42.8 µL/min. For the same compound, the “RT 97 RCC axon density 11 days” value in data set [1] amounted to 56.6%.
Turning to `CCC(C)(C)C(=O)C(=O)N1CCS[C@H]1C(=O)OCCCc1cccnc1` [F], the pKi on FKBP12 (Table V, read-out: Ki rotomase) was 6.57. Besides, the “RT 97 RCC axon density 11 days” value in data set [1] turned out to be 55.1%.
As for `CCC(C)(C)C(=O)C(=O)N1CCCC[C@H]1C(=O)O` [G], the “RT 97 RCC axon density 11 days” value in data set [1] is 34.0%.
The same measure, in the same setting: as for `CCC(C)(C)C(=O)C(=O)N1CCCC[C@H]1C(=O)O` [H], the figure is 30.3%.
On to `O=C(OCCCc1cccnc1)[C@@H]1CCCN1C(=S)NC1CCCCC1` [I], for which, in data set [2], the Clearance stood at 8.0 µL/min. Also, the “RT 97 RCC axon density 11 days” value in data set [1] is listed as 23.8%.
With `CCC(C)(C)C(=O)C(=O)N1CCCC[C@H]1C(=O)CCCCc1cccnc1` [J], on FKBP12 (Table V, read-out: Ki rotomase), the pKi is 6.68. The compound also showed a Clearance in data set [2] of 1.5 µL/min. Further, the “RT 97 RCC axon density 11 days” value in data set [1] is reported as 15.8%.
In turn, `CCC(C)(C)C(=O)C(=O)N1CCCC[C@H]1C(=O)SCCC(c1ccccc1)c1ccccc1` [K] displayed a Clearance in data set [2] of 4.5 µL/min. Also, in data set [1], the “RT 97 RCC axon density 11 days” value amounted to 13.0%.
As for `CCC(C)(C)C(=O)C(=O)N1CCC[C@H]1C(=O)O` [L], the Clearance in data set [2] was determined as 5.2 µL/min. For the same compound, the “RT 97 RCC axon density 11 days” value in data set [1] is reported as 7.8%.
The like results for `CCC(C)(C)C(=O)C(=O)N1CCC[C@H]1C(=O)SCCC(c1ccccc1)c1ccccc1` [M] were, in that order, 12.5 µL/min and -6.3%.
In data set [2], `CN(C)C(=O)N1CCC[C@H]1C(=O)SCCCc1ccccc1` [N] registered a Clearance of 21.9 µL/min.
